In the NIST ThermoML archive (doi:10.1021/je5009679):
± gives the expanded uncertainty stated by the source.

Conditions: Liquid; for viscosity: Concentric cylinders viscometry

CCOP(=O)([O-])OCC.CCn1cc[n+](C)c1 [1-ethyl-3-methylimidazolium diethyl phosphate]
101.33 kPa
Conditions | viscosity [mPa·s]
293.15 K | 664.7 ± 38
303.15 K | 317.3 ± 16
313.15 K | 173.9 ± 8.6
323.15 K | 103.8 ± 5
333.15 K | 66.37 ± 3.1
343.15 K | 44.92 ± 2.1
353.15 K | 31.86 ± 1.5
363.15 K | 23.5 ± 1.1
373.15 K | 17.92 ± 0.84

Conditions | mass density [kg/m3]
293.15 K, 101.33 kPa, Vibrating tube method | 1148.2 ± 1.1
303.15 K, 101.33 kPa, Vibrating tube method | 1141.2 ± 1.1
311.4 K, 10000 kPa, Bellows volumetry | 1140.5 ± 1.4
311.4 K, 20000 kPa, Bellows volumetry | 1145.4 ± 1.4
311.4 K, 30000 kPa, Bellows volumetry | 1150.1 ± 1.4
311.4 K, 40000 kPa, Bellows volumetry | 1154.6 ± 1.4
311.4 K, 50000 kPa, Bellows volumetry | 1158.9 ± 1.4
311.4 K, 60000 kPa, Bellows volumetry | 1163 ± 1.4
311.4 K, 70000 kPa, Bellows volumetry | 1167 ± 1.4
311.4 K, 80000 kPa, Bellows volumetry | 1170.9 ± 1.4
311.4 K, 90000 kPa, Bellows volumetry | 1174.6 ± 1.4
311.4 K, 100000 kPa, Bellows volumetry | 1178.3 ± 1.4
311.4 K, 110000 kPa, Bellows volumetry | 1181.8 ± 1.4
311.4 K, 120000 kPa, Bellows volumetry | 1185.2 ± 1.4
311.4 K, 130000 kPa, Bellows volumetry | 1188.6 ± 1.4
311.4 K, 140000 kPa, Bellows volumetry | 1191.8 ± 1.4
311.4 K, 150000 kPa, Bellows volumetry | 1195.2 ± 1.4
311.4 K, 160000 kPa, Bellows volumetry | 1198.2 ± 1.4
311.4 K, 170000 kPa, Bellows volumetry | 1201.4 ± 1.4
311.4 K, 180000 kPa, Bellows volumetry | 1204.4 ± 1.4
311.4 K, 190000 kPa, Bellows volumetry | 1207.3 ± 1.4
311.4 K, 200000 kPa, Bellows volumetry | 1210.3 ± 1.4
313.15 K, 101.33 kPa, Vibrating tube method | 1134.4 ± 1
323.15 K, 101.33 kPa, Vibrating tube method | 1127.8 ± 1
331.3 K, 10000 kPa, Bellows volumetry | 1127.5 ± 1.4
331.3 K, 20000 kPa, Bellows volumetry | 1132.6 ± 1.4
331.3 K, 30000 kPa, Bellows volumetry | 1137.6 ± 1.4
331.3 K, 40000 kPa, Bellows volumetry | 1142.3 ± 1.4
331.3 K, 50000 kPa, Bellows volumetry | 1146.8 ± 1.4
331.3 K, 60000 kPa, Bellows volumetry | 1151.2 ± 1.4
331.3 K, 70000 kPa, Bellows volumetry | 1155.3 ± 1.4
331.3 K, 80000 kPa, Bellows volumetry | 1159.4 ± 1.4
331.3 K, 90000 kPa, Bellows volumetry | 1163.2 ± 1.4
331.3 K, 100000 kPa, Bellows volumetry | 1167.1 ± 1.4
331.3 K, 110000 kPa, Bellows volumetry | 1170.7 ± 1.4
331.3 K, 120000 kPa, Bellows volumetry | 1174.4 ± 1.4
331.3 K, 130000 kPa, Bellows volumetry | 1177.8 ± 1.4
331.3 K, 140000 kPa, Bellows volumetry | 1181.3 ± 1.4
331.3 K, 150000 kPa, Bellows volumetry | 1184.8 ± 1.4
331.3 K, 160000 kPa, Bellows volumetry | 1187.9 ± 1.4
331.3 K, 170000 kPa, Bellows volumetry | 1191 ± 1.4
331.3 K, 180000 kPa, Bellows volumetry | 1194.1 ± 1.4
331.3 K, 190000 kPa, Bellows volumetry | 1197.3 ± 1.4
331.3 K, 200000 kPa, Bellows volumetry | 1200.2 ± 1.4
333.15 K, 101.33 kPa, Vibrating tube method | 1121.2 ± 1
343.15 K, 101.33 kPa, Vibrating tube method | 1114.6 ± 1
351.4 K, 10000 kPa, Bellows volumetry | 1114.6 ± 1.4
351.4 K, 20000 kPa, Bellows volumetry | 1120 ± 1.4
351.4 K, 30000 kPa, Bellows volumetry | 1125.2 ± 1.4
351.4 K, 40000 kPa, Bellows volumetry | 1130.2 ± 1.4
351.4 K, 50000 kPa, Bellows volumetry | 1134.9 ± 1.4
351.4 K, 60000 kPa, Bellows volumetry | 1139.5 ± 1.4
351.4 K, 70000 kPa, Bellows volumetry | 1144 ± 1.4
351.4 K, 80000 kPa, Bellows volumetry | 1148.1 ± 1.4
351.4 K, 90000 kPa, Bellows volumetry | 1152.2 ± 1.4
351.4 K, 100000 kPa, Bellows volumetry | 1156.1 ± 1.4
351.4 K, 110000 kPa, Bellows volumetry | 1159.9 ± 1.4
351.4 K, 120000 kPa, Bellows volumetry | 1163.6 ± 1.4
351.4 K, 130000 kPa, Bellows volumetry | 1167.2 ± 1.4
351.4 K, 140000 kPa, Bellows volumetry | 1170.7 ± 1.4
351.4 K, 150000 kPa, Bellows volumetry | 1174.2 ± 1.4
351.4 K, 160000 kPa, Bellows volumetry | 1177.5 ± 1.4
351.4 K, 170000 kPa, Bellows volumetry | 1180.8 ± 1.4
351.4 K, 180000 kPa, Bellows volumetry | 1184 ± 1.4
351.4 K, 190000 kPa, Bellows volumetry | 1187.1 ± 1.4
351.4 K, 200000 kPa, Bellows volumetry | 1190.3 ± 1.4
353.15 K, 101.33 kPa, Vibrating tube method | 1108 ± 1
363.15 K, 101.33 kPa, Vibrating tube method | 1101.5 ± 1
371.6 K, 10000 kPa, Bellows volumetry | 1102 ± 1.4
371.6 K, 20000 kPa, Bellows volumetry | 1107.7 ± 1.4
371.6 K, 30000 kPa, Bellows volumetry | 1113.3 ± 1.4
371.6 K, 40000 kPa, Bellows volumetry | 1118.5 ± 1.4
371.6 K, 50000 kPa, Bellows volumetry | 1123.4 ± 1.4
371.6 K, 60000 kPa, Bellows volumetry | 1128.2 ± 1.4
371.6 K, 70000 kPa, Bellows volumetry | 1132.7 ± 1.4
371.6 K, 80000 kPa, Bellows volumetry | 1137.2 ± 1.4
371.6 K, 90000 kPa, Bellows volumetry | 1141.3 ± 1.4
371.6 K, 100000 kPa, Bellows volumetry | 1145.5 ± 1.4
371.6 K, 110000 kPa, Bellows volumetry | 1149.4 ± 1.4
371.6 K, 120000 kPa, Bellows volumetry | 1153.2 ± 1.4
371.6 K, 130000 kPa, Bellows volumetry | 1157 ± 1.4
371.6 K, 140000 kPa, Bellows volumetry | 1160.6 ± 1.4
371.6 K, 150000 kPa, Bellows volumetry | 1164.2 ± 1.4
371.6 K, 160000 kPa, Bellows volumetry | 1167.7 ± 1.4
371.6 K, 170000 kPa, Bellows volumetry | 1171 ± 1.4
371.6 K, 180000 kPa, Bellows volumetry | 1174.3 ± 1.4
371.6 K, 190000 kPa, Bellows volumetry | 1177.5 ± 1.4
371.6 K, 200000 kPa, Bellows volumetry | 1180.8 ± 1.4
373.15 K, 101.33 kPa, Vibrating tube method | 1094.9 ± 1
391.6 K, 10000 kPa, Bellows volumetry | 1089.8 ± 1.4
391.6 K, 20000 kPa, Bellows volumetry | 1095.6 ± 1.4
391.6 K, 30000 kPa, Bellows volumetry | 1101.5 ± 1.4
391.6 K, 40000 kPa, Bellows volumetry | 1107 ± 1.4
391.6 K, 50000 kPa, Bellows volumetry | 1112.3 ± 1.4
391.6 K, 60000 kPa, Bellows volumetry | 1117.2 ± 1.4
391.6 K, 70000 kPa, Bellows volumetry | 1122 ± 1.4
391.6 K, 80000 kPa, Bellows volumetry | 1126.6 ± 1.4
391.6 K, 90000 kPa, Bellows volumetry | 1131 ± 1.4
391.6 K, 100000 kPa, Bellows volumetry | 1135.2 ± 1.4
391.6 K, 110000 kPa, Bellows volumetry | 1139.4 ± 1.4
391.6 K, 120000 kPa, Bellows volumetry | 1143.4 ± 1.4
391.6 K, 130000 kPa, Bellows volumetry | 1147.1 ± 1.4
391.6 K, 140000 kPa, Bellows volumetry | 1151 ± 1.4
391.6 K, 150000 kPa, Bellows volumetry | 1154.6 ± 1.4
391.6 K, 160000 kPa, Bellows volumetry | 1158.1 ± 1.4
391.6 K, 170000 kPa, Bellows volumetry | 1161.5 ± 1.4
391.6 K, 180000 kPa, Bellows volumetry | 1165 ± 1.4
391.6 K, 190000 kPa, Bellows volumetry | 1168.2 ± 1.4
391.6 K, 200000 kPa, Bellows volumetry | 1171.5 ± 1.4
411.7 K, 10000 kPa, Bellows volumetry | 1077.9 ± 1.4
411.7 K, 20000 kPa, Bellows volumetry | 1084.3 ± 1.4
411.7 K, 30000 kPa, Bellows volumetry | 1090.4 ± 1.4
411.7 K, 40000 kPa, Bellows volumetry | 1096.2 ± 1.4
411.7 K, 50000 kPa, Bellows volumetry | 1101.7 ± 1.4
411.7 K, 60000 kPa, Bellows volumetry | 1106.9 ± 1.4
411.7 K, 70000 kPa, Bellows volumetry | 1111.9 ± 1.4
411.7 K, 80000 kPa, Bellows volumetry | 1116.7 ± 1.4
411.7 K, 90000 kPa, Bellows volumetry | 1120.6 ± 1.4
411.7 K, 100000 kPa, Bellows volumetry | 1125.1 ± 1.4
411.7 K, 110000 kPa, Bellows volumetry | 1129.3 ± 1.4
411.7 K, 120000 kPa, Bellows volumetry | 1133.4 ± 1.4
411.7 K, 130000 kPa, Bellows volumetry | 1137.4 ± 1.4
411.7 K, 140000 kPa, Bellows volumetry | 1141.2 ± 1.4
411.7 K, 150000 kPa, Bellows volumetry | 1145 ± 1.4
411.7 K, 160000 kPa, Bellows volumetry | 1148.7 ± 1.4
411.7 K, 170000 kPa, Bellows volumetry | 1152.3 ± 1.4
411.7 K, 180000 kPa, Bellows volumetry | 1155.8 ± 1.4
411.7 K, 190000 kPa, Bellows volumetry | 1159.2 ± 1.4
411.7 K, 200000 kPa, Bellows volumetry | 1162.6 ± 1.4
